This test has as its target T1, SHP2 (residues 224-528) (Homo sapiens, UniProt Q06124).
T1 construct: 4× solution of SHP2 (residues 224-528)
T1 sequence (Q06124 224-528): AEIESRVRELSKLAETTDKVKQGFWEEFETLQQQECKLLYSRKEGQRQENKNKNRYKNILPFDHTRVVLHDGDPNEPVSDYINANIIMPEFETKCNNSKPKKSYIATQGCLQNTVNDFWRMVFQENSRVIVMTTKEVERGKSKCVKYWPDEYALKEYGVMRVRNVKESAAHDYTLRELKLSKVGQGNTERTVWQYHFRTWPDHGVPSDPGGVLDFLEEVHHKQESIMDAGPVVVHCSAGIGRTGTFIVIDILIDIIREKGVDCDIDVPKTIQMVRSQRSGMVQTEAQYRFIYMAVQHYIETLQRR
Kind of test: Kinetic characterization of SHP2 inactivation (pNPP cleavage progress curves, kobs, kinact/KI). It counts as biochemical. Particulars: for kinact/KI / KI (inactivation) / kinact: substrate pNPP 3 mM, 100 nM SHP2, pH 7.0, 25° C; for fold decrease in efficacy: comparator not given. The source says: Covalent inhibitors work by forming a covalent bond with a reactive functional group in the target enzyme. Consequently, the kinetics for enzyme inactivation by a covalent inhibitor is not an equilibrium process as with reversible inhibition. The potency of a reversible inhibitor can be measured by its IC50 value. Unlike reversible inhibitors, where inhibition is only concentration-dependent, covalent inhibitors show both time- and concentration-dependent target inhibition (a covalent bond formation is a time-dependent event). If sufficient time is available, covalent inhibitors can completely neutralize the target, rather than go to equilibrium. As a result, the potency and selectivity of a covalent inhibitor cannot be determined by IC50 values; instead, the rate of inactivation of the target (kinact) and the inhibition constant (KI) were determined. The bimolecular rate constant (kinact/KI), was chosen to rank the potency of covalent inhibitors (Ruddraraju et al., 2017, Molecular Biosystems 13(7), 1257-1279).
PTPs catalyze the dephosphorylation of tyrosine-phosphorylated protein substrates through a conserved mechanism that relies on a catalytic cysteine residue (Zhang, Z.-Y et al., 2003, Prog. Nucleic Acid Research Molecular Biology, 73, 171-220). This provides a mechanistic rationale for the assessment of electrophilic Michael acceptors, such as those synthesized in the present disclosure as potential covalent inhibitors of the SHP2. The enzymatic cleavage of para-nitrophenyl phosphate by SHP2 was measured over time in the presence of 100 μM inhibitor or DMSO, to determine the observed first-order rate constant (kobs). Based on kobs values, compounds were further evaluated in a dose-dependent manner to determine the second-order rate constant (kinact/KI) indicating the overall efficacy of the compounds, which was used to assess the structure-activity relationship (SAR) for the analogs of interest and design additional analogs (see Table 1). […] It has been known that modifications to the electronegativity of substituents proximal to electrophilic centers alter the reactivity of the electrophile.
The efficacy of covalent inhibitors can be broken down into the initial reversible binding of the compounds (KI), and the rate of covalent bond formation and enzyme inactivation (kinact). These two constants can be used individually, or as a ratio to determine the overall efficacy of the inhibitor's efficacy. To investigate the contribution to reversible binding compound (34) was evaluated, which lacks the carbonyl of the Michael acceptor to prevent the formation of a covalent adduct.
Inhibitors were evaluated for their ability to inhibit the reaction catalyzed by SHP2 using para-nitrophenyl phosphate (pNPP) as a substrate at pH 7 and 25° C. A 2× solution of inhibitor was diluted into DMG buffer (50 mM 3,3-dimethylglutarate pH 7.0, 1 mM EDTA, ionic strength adjusted to 150 mM using NaCl) was added to a clear flat-bottom 96-well plate (Corning Costar Assay Plate #9017), and serially diluted 1.5-fold, resulting in 100 μL volumes of varying inhibitor concentrations. To this was added a 4× solution of pNPP (12 mM) in DMG buffer. The reaction was initialized by the addition of a 4× solution of SHP2 (residues 224-528), resulting in a final solution of: inhibitor (100-0 μM), pNPP (3 mM), and SHP2 (100 nM). The plate was then monitored for a change in absorbance ab […] using a CLARIOstar^Plus plate reader (BMG Labetch) over the course of an hour. The resulting progress curves for each inhibitor were imported into Graphpad Prism 9 (GraphPad Software, San Diego, CA (USA)), and a baseline correction analysis was completed for fitting purposes. Each curve was fit to the equation Y=V0×(1−e^−kobs*t)/kobs.^[17.22] The kobs values were then plotted against inhibitor concentrations. If the resulting graph was linear, the kinact/KI value was determined by the slope of that line and the 95% confidence interval (95% CI). […]

Where [1] appears, read: pH 7, role: inhibitor, read-out: kinact/KI (converted).

“Also recorded” adds a separate entry of the source. Read-outs that look alike come from different tables or passages of the source.

As for `C=C1C(=O)[C@@]2(C(=O)NCCC)CC(=O)C[C@@H]1C2` [Compound 11], the kinact/KI under setting [1] is 14.3 M⁻¹ s⁻¹. Further, for the setting “role: inhibitor”, the “SHP2 inhibition efficacy (in words)” value was “slightly less potent than compound (10)” and the kinact/KI was determined as 865.8 M^−1Min^−1.
As to `C=C1C(=O)[C@@]2(C(=O)N(CC)CC)CC(=O)C[C@@H]1C2` [Compound 12], the kinact/KI under setting [1] is 17.5 M⁻¹ s⁻¹. Moreover, under “role: inhibitor”, the “SHP2 inhibition efficacy (in words)” value is “more effective than compound (11) and the cyclic matched molecular pair (MMP) compound (17)”.
With `C=C1C(=O)[C@@]2(C(=O)N3CCCC3)CC(=O)C[C@@H]1C2` [Compound 17], the kinact/KI under setting [1] is 13.4 M⁻¹ s⁻¹.
Consider `C=C1C(=O)[C@@]2(C(=O)N3CCCCC3)CC(=O)C[C@@H]1C2` [Compound 19], for which, under setting [1], the kinact/KI was 19.4 M⁻¹ s⁻¹.
As for `C=C1C(=O)[C@@]2(C(=O)N3CCCCCC3)CC(=O)C[C@@H]1C2` [Compound 20], the kinact/KI under setting [1] was 22.7 M⁻¹ s⁻¹.
In the case of `C=C1C(=O)[C@@]2(C(=O)N3CCOCC3)CC(=O)C[C@@H]1C2` [Compound 21], the kinact/KI under setting [1] is 16 M⁻¹ s⁻¹. Besides, the “fold decrease in efficacy” value (role: inhibitor) was approximately 2 fold.
For the molecule `C=C1C(=O)[C@@]2(C(=O)N3CC4(COC4)C3)CC(=O)C[C@@H]1C2` [Compound 22], the kinact/KI under setting [1] was 12.9 M⁻¹ s⁻¹. Also, the “fold decrease in efficacy” value (role: inhibitor) was approximately 2 fold.
On to `C=C1C(=O)[C@@]2(C(=O)N3CCC(F)(F)CC3)CC(=O)C[C@@H]1C2` [Compound 23], for which, under setting [1], the kinact/KI is 36.8 M⁻¹ s⁻¹. For the setting “role: inhibitor”, the “SHP2 inhibition efficacy (in words)” value is recorded as “more effective SHP2 inhibitor” and the kinact/KI is 2,026.8 M^−1Min^−1.
Regarding `C=C1C(=O)[C@@]2(C(=O)N3CCN(C(=O)OC(C)(C)C)CC3)CC(=O)C[C@@H]1C2` [Compound 25], the kinact/KI under setting [1] is 28.1 M⁻¹ s⁻¹. The “SHP2 inhibition efficacy (in words)” value (role: inhibitor) is reported as “able to inhibit the catalytic activity of SHP2”.
As to `C=C1C(=O)[C@@]2(C(=O)N3CCN(C(C)=O)CC3)CC(=O)C[C@@H]1C2` [Compound 26], the kinact/KI under setting [1] is 15.4 M⁻¹ s⁻¹. Also, where the note is “role: inhibitor”, the “SHP2 inhibition efficacy (in words)” value is “able to inhibit the catalytic activity of SHP2”.
On to `C=C1C(=O)[C@@]2(C(=O)N3CCN(c4ccccc4)CC3)CC(=O)C[C@@H]1C2` [Compound 30], for which, under setting [1], the kinact/KI was 39.6 M⁻¹ s⁻¹. Further, under “role: inhibitor”, the “SHP2 inhibition efficacy (in words)” value is “small improvement in efficacy”.
On to `C=C1C(=O)[C@@]2(C(=O)N3CCN(c4ccccc4C#N)CC3)CC(=O)C[C@@H]1C2` [Compound 32], for which, under setting [1], the kinact/KI was 367 M⁻¹ s⁻¹. Further, the “fold improvement in efficacy over the unsubstituted piperidine analog (19)” value (role: inhibitor, kinact/KI relative to 19) is listed as “approximately 19 fold”. For the setting “role: inhibitor, kinact/KI relative to unsubstituted phenyl”, the “fold increase in efficacy relative to the unsubstituted phenyl ring” value is listed as 9.25 fold.
Turning to `C=C1CC2(C(=O)N3CCN(c4ccc(Br)cc4)CC3)CC(=O)CC1C2` (stereo not shown) [Compound 34], for the setting “role: inhibitor”, the “SHP2 inhibition efficacy (in words)” value was “complete loss of SHP2 inhibition efficacy; also recorded: inactive against SHP2; also recorded: complete loss of activity”.
For the molecule `C=C1C(=O)[C@@]2(C(=O)N3CCN(c4ccc(F)cc4)CC3)CC(=O)C[C@@H]1C2` [Compound 35], under setting [1], the kinact/KI was 97.6 M⁻¹ s⁻¹. Also, under “role: inhibitor”, the KI (inactivation) was determined as 112 µM and the kinact is 0.0109 s⁻¹.
For `C=C1C(=O)[C@@]2(C(=O)N3CCN(c4ccc(Cl)cc4)CC3)CC(=O)C[C@@H]1C2` [Compound 36], the kinact/KI under setting [1] was 220 M⁻¹ s⁻¹.
With `C=C1C(=O)[C@@]2(C(=O)N3CCN(c4ccc(C)cc4)CC3)CC(=O)C[C@@H]1C2` [Compound 38], the kinact/KI under setting [1] is 101 M⁻¹ s⁻¹. Also, where the note is “role: inhibitor”, the KI (inactivation) is 176 µM and the kinact was 0.0172 s⁻¹.
For `C=C1C(=O)[C@@]2(C(=O)N3CCN(c4ccc(OC)cc4)CC3)CC(=O)C[C@@H]1C2` [Compound 39], the kinact/KI under setting [1] is 46.5 M⁻¹ s⁻¹.
Consider `C=C1C(=O)[C@@]2(C(=O)N3CCN(c4ccc(C(C)(C)C)cc4)CC3)CC(=O)C[C@@H]1C2` [Compound 40], for which the kinact/KI under setting [1] is 291 M⁻¹ s⁻¹.
As for `C=C1C(=O)[C@@]2(C(=O)N3CCN(c4ccc(-c5ccccc5)cc4)CC3)CC(=O)C[C@@H]1C2` [Compound 41], the kinact/KI under setting [1] is 311 M⁻¹ s⁻¹. Further, where the note is “role: inhibitor”, the KI (inactivation) amounted to 10.2 µM and the kinact was 0.00317 s⁻¹.

(Values after patent US20260327239A1, “COMPOUNDS FOR COVALENT INHIBITION OF SHP2” (Purdue Research Foundation, priority 2023, published 2026).)
